According to US4302448A, “Secretin preparations with intensified and protracted action, process for their manufacture, their use as well as dihydroxybenzoyl-L-tyrosine” (Hoechst Aktiengesellschaft, priority 1979, dated 1981):

How the values were obtained:
Format in all cases: in vivo
[1] = tested on: Pancreatic juice secretion of the rat; assay: Pancreatic juice secretion of the rat after subcutaneous administration of secretin with depot bodies; conditions: rat, subcutaneous, 5 CU/kg secretin + 10 mg depot body/animal
Description: Secretin preparations for subcutaneous application which contained the depot bodies specified in the following Table were tested in animal experiments. In the experimental procedure chosen, 5 to 8 male rats weighing 300 to 500 g each are administered subcutaneously 5 CU/kg of secretin (CU means clinical unit) and 10 mg of the depot body to be tested each in aqueous solution or suspension.
The animals remain without food for 18 hours prior to the test, but they are given water ad libitum. Under urethane anaesthesia (5 ml/kg i.m. of 25% urethane) the abdomen is opened by median section after tracheotomy, and the pylorus is ligated. The ductus choledochus is tied off in its proximal part near the porta hepatis, and the bile is led into the duodenum via a polyethylene tube of a diameter of […]. A cannula or catheter is inserted into the distal part of the bile duct, into which the numerous pancreatic ducts open, immediately before it opens into the duodenum, and the volume of the secretion running off is measured in 60 minute intervals. Following a preliminary run of 60 minutes the preparations are administered.
L means the compound known from literature and characterized by the melting point, optionally UV, IR or NMR. A to C relate to the preparation according to Example 1, process A to C. These compounds were characterized by ultimate analysis. The third column indicates the percentage by which the pancreatic secretion is above the basal secretion after 5 hours (calculated on the control=100%). This value is a measure for the depot effect of the depot body tested. Column 4 indicates the intensification of the secretin effect, with the total pancreatic juice secretion having been given over 5 hours as compared with the control (0.9% of NaCl)=1.

pancreatic juice = assay: Pancreatic juice production in rats after rectal administration of secretin suppository with or without depot body
Description: The intensified effect of secretin in the form of rectally administrable preparations due to the depot bodies used according to the invention becomes evident from the drawing. In a test carried out on 8 rats each weighing 0.5 kg, 100 μg of secretin in a suppository of a weight of 73 mg cause the production of 92 μl of pancreatic juice (curve 1). With the addition of 25 mg of 3,5-dihydroxybenzoyl-L-tyrosine the volume of pancreatic juice rose to 1778 μl (curve 2). This corresponds to an increase of the effect to about 20 times its original value. […] In the present case the secretin dose has been chosen very high in order to obtain a measurable volume also without additive.
With a non-maximum stimulation in the normal dose range (about half the dose), the increase of the effect is about 50-fold.

[2] = tested on: pancreatic juice secretion; assay: Biological effect of rectally administered secretin measured via pancreatic juice secretion, compared with subcutaneous injection; conditions: secretin in suppositories or rectal capsules without depot body
Description: Many medicaments may be incorporated in suppositories and administered rectally. They are sufficiently well absorbed in this form. […] For example, if secretin is administered by this route, the biological effect which is measured via pancreatic juice secretion is only about 1% of the effect obtained with subcutaneous injection.

[3] = rats, rectal, 100 μg secretin + 25 mg depot body

Compound | Δ% vs. control (percentage by which the pancreatic secretion is above the basal secretion after 5 hours) ([1]; after 5 hours, control=100%, measure of depot effect) | Rel. Intensity of effect over 5 hours (total pancreatic juice secretion over 5 hours as compared with control) ([1]; control (0.9% of NaCl)=1) | volume of pancreatic juice (pancreatic juice; 8 rats of 0.5 kg, rectal, 100 μg secretin suppository with addition of 25 mg depot body (curve 2)) | increase in efficacy, rectal versus subcutaneous application (in words) (pancreatic juice; comparison of routes) | increase of the effect relative to original value (secretin suppository without additive) (pancreatic juice; [3]) | protracted action (in words) (pancreatic juice; [3]) | increase of the effect (pancreatic juice; rectal, non-maximum stimulation in the normal dose range (about half the dose)) | production of pancreatic juice (pancreatic juice; 8 rats of 0.5 kg, rectal, 100 μg secretin in 73 mg suppository, no additive (curve 1)) | biological effect of rectal administration relative to effect obtained with subcutaneous injection [2]
O=C(N[C@@H](Cc1ccc(O)cc1)C(=O)O)c1cc(O)cc(O)c1 [3,5-Dihydroxybenzoyl-L-tyrosine] | 76% | 9.2 | 1778 µL | greater increase in efficacy when applied rectally than with subcutaneous application | about 20 times | a protracted action can also be observed | about 50 fold |  | 
secretin [reference compound] |  |  |  |  |  |  |  | 92 µL | about 1%
